Tests used:
[1] = test system: β-Glucosidase derived from almond; assay: Reactivity toward various isoflavone glycosides (HPLC); assay type: biochemical; design: unit not given here; settings: 55 °C, pH 4.0
Experimental: Diglycosidase was diluted with an acetate buffer of pH 4.0 to prepare a 0.75 AU/mL enzyme solution. As references, a similar operation was conducted using β-glucosidase (manufactured by Fluka) derived from Aspergillus niger, β-glucosidase (manufactured by Sigma) derived from almond, β-xylosidase derived from pectinase G (manufactured by Amano Enzyme Inc.). Each of purified products of isoflavone glycosides (glycitin, acetylglycitin, malonylglycitin, daidzin, acetyldaidzin, malonyldaidzin, genistin, acetylgenistin, malonylgenistin, all manufactured by Nacalai Tesque, Inc.) was dissolved in methanol to prepare each 2 mM substrate solution. The reaction was carried out by mixing 10 μL of a substrate solution, 200 μL of 20 mM acetate buffer (pH 4.0), and 40 μL of each purified enzyme solution at a total liquid volume of 250 μL. The reaction was carried out at 55° C. and isolation of an aglycon isoflavone from an isoflavone glycoside in the reaction mixture was detected by HLPC at 0, 1, 3, and 6 hours of the reaction.
To the reaction mixture was added 700 μL of ethanol, followed by stirring and ultrasonication. After centrifugation at 15,000 rpm and 4° C. for 10 minutes, the supernatant was filtered through a filter and then the filtrate was applied to HPLC.
The isoflavone glycoside and aglycon isoflavone contained in the filtrate was separated and detected by a high performance liquid chromatography (HPLC, Shimadzu CLASS LC-10 system) using TOSOH TSK gel ODS-80TM column (manufactured by Tosoh Corporation). […] The absorbance at 260 nm was detected by a UV detector (Shimadzu, SPD-10AV). Using purified products (manufactured by Nacalai Tesque, Inc.) of the above isoflavone glycosides and aglycon isoflavones, the isoflavone glycoside and aglycon isoflavone were quantitatively determined according to a calibration curve method. By the way, unless otherwise stated, the measuring conditions of HPLC herein mean those described in the example.

Crude diglycosidase = assay: Examination of temperature in the conversion into isoflavone aglycons by diglycosidase using soybean materials; assay type: biochemical, Penicillium multicolor IAM7153; design: Decomposition efficiency of glycitin family in roasted soy flour / Decomposition efficiency of daidzin family in roasted soy flour / Decomposition efficiency of genistin family in soymilk / Decomposition efficiency of daidzin family in soymilk / Decomposition efficiency of glycitin family in defatted soybean / Decomposition efficiency of daidzin family in defatted soybean: concentration or dose not given beside the values
Summary of the method: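 Soybean materials (50 mg) suspended in 20 mM acetate buffer pH 4.0 reacted with crude diglycosidase diluted to 1.88 AU/mL at 80, 65, 55, 45, 37 or 30° C. Reactions stopped with ethanol at 0, 1, 3 and 6 h; isoflavone glycosides and aglycons in supernatant detected by HPLC.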

[2] = 30 °C, heat treatment of enzyme: no, 0 h
[3] = 30 °C, heat treatment of enzyme: no, 1 h
[4] = 30 °C, heat treatment of enzyme: no, 3 h
[5] = 30 °C, heat treatment of enzyme: no, 6 h
[6] = 30 °C, heat treatment of enzyme: yes, 6 h
[7] = 45 °C, heat treatment of enzyme: no, 0 h
[8] = 45 °C, heat treatment of enzyme: no, 1 h
[9] = 45 °C, heat treatment of enzyme: no, 3 h
[10] = 45 °C, heat treatment of enzyme: no, 6 h
[11] = 45 °C, heat treatment of enzyme: yes, 6 h
[12] = 55 °C, heat treatment of enzyme: no, 0 h
[13] = 55 °C, heat treatment of enzyme: no, 1 h
[14] = 55 °C, heat treatment of enzyme: no, 3 h
[15] = 55 °C, heat treatment of enzyme: no, 6 h
[16] = 55 °C, heat treatment of enzyme: yes, 6 h
[17] = 65 °C, heat treatment of enzyme: no, 0 h
[18] = 65 °C, heat treatment of enzyme: no, 1 h
[19] = 65 °C, heat treatment of enzyme: no, 3 h
[20] = 65 °C, heat treatment of enzyme: no, 6 h
[21] = 65 °C, heat treatment of enzyme: yes, 6 h
[22] = 80 °C, heat treatment of enzyme: no, 0 h
[23] = 80 °C, heat treatment of enzyme: no, 1 h
[24] = 80 °C, heat treatment of enzyme: no, 3 h
[25] = 80 °C, heat treatment of enzyme: no, 6 h
[26] = 80 °C, heat treatment of enzyme: yes, 6 h

SMILES: COc1cc2c(=O)c(-c3ccc(O)cc3)coc2cc1O[C@@H]1O[C@H](COC(C)=O)[C@@H](O)[C@H](O)[C@H]1O [acetylglycitin, 6″-O-acetylglycitin]
- aglycon ([1]; Reaction time 0 h): 0
- glucoside ([1]; Reaction time 0 h): 100
- aglycon ([1]; Reaction time 1 h): 0
- glucoside ([1]; Reaction time 1 h): 100
- aglycon ([1]; Reaction time 3 h): 0
- glucoside ([1]; Reaction time 3 h): 100
- aglycon ([1]; Reaction time 6 h): 0
- glucoside ([1]; Reaction time 6 h): 100
- Decomposition efficiency of glycitin family in defatted soybean (Crude diglycosidase; 30° C., heat treatment of enzyme no, reaction time 0 h): not detected
- Decomposition efficiency of glycitin family in defatted soybean (Crude diglycosidase; 30° C., heat treatment of enzyme no, reaction time 1 h): not detected
- Decomposition efficiency of glycitin family in defatted soybean (Crude diglycosidase; 30° C., heat treatment of enzyme no, reaction time 3 h): not detected
- Decomposition efficiency of glycitin family in defatted soybean (Crude diglycosidase; 30° C., heat treatment of enzyme no, reaction time 6 h): not detected
- Decomposition efficiency of glycitin family in defatted soybean (Crude diglycosidase; 30° C., heat treatment of enzyme yes, reaction time 6 h): not detected
- Decomposition efficiency of glycitin family in concentrated soybean protein (Crude diglycosidase; [2]): 36.0%
- Decomposition efficiency of glycitin family in roasted soy flour (Crude diglycosidase; [2]): 38.7%
- Decomposition efficiency of glycitin family in soymilk (Crude diglycosidase; [2]): not detected
- Decomposition efficiency of glycitin family in concentrated soybean protein (Crude diglycosidase; [3]): 35.0%
- Decomposition efficiency of glycitin family in roasted soy flour (Crude diglycosidase; [3]): 33.8%
- Decomposition efficiency of glycitin family in soymilk (Crude diglycosidase; [3]): not detected
- Decomposition efficiency of glycitin family in concentrated soybean protein (Crude diglycosidase; [4]): 33.4%
- Decomposition efficiency of glycitin family in roasted soy flour (Crude diglycosidase; [4]): 33.2%
- Decomposition efficiency of glycitin family in soymilk (Crude diglycosidase; [4]): not detected
- Decomposition efficiency of glycitin family in concentrated soybean protein (Crude diglycosidase; [5]): 30.8%
- Decomposition efficiency of glycitin family in roasted soy flour (Crude diglycosidase; [5]): 19.1%
- Decomposition efficiency of glycitin family in soymilk (Crude diglycosidase; [5]): not detected
- Decomposition efficiency of glycitin family in concentrated soybean protein (Crude diglycosidase; [6]): 35.4%
- Decomposition efficiency of glycitin family in roasted soy flour (Crude diglycosidase; [6]): 37.5%
- Decomposition efficiency of glycitin family in soymilk (Crude diglycosidase; [6]): not detected
- Decomposition efficiency of glycitin family in defatted soybean (Crude diglycosidase; 45° C., heat treatment of enzyme no, reaction time 0 h): not detected
- Decomposition efficiency of glycitin family in defatted soybean (Crude diglycosidase; 45° C., heat treatment of enzyme no, reaction time 1 h): not detected
- Decomposition efficiency of glycitin family in defatted soybean (Crude diglycosidase; 45° C., heat treatment of enzyme no, reaction time 3 h): not detected
- Decomposition efficiency of glycitin family in defatted soybean (Crude diglycosidase; 45° C., heat treatment of enzyme no, reaction time 6 h): not detected
- Decomposition efficiency of glycitin family in defatted soybean (Crude diglycosidase; 45° C., heat treatment of enzyme yes, reaction time 6 h): not detected
- Decomposition efficiency of glycitin family in concentrated soybean protein (Crude diglycosidase; [7]): 35.9%
- Decomposition efficiency of glycitin family in roasted soy flour (Crude diglycosidase; [7]): 38.3%
- Decomposition efficiency of glycitin family in soymilk (Crude diglycosidase; [7]): not detected
- Decomposition efficiency of glycitin family in concentrated soybean protein (Crude diglycosidase; [8]): 34.1%
- Decomposition efficiency of glycitin family in roasted soy flour (Crude diglycosidase; [8]): 27.4%
- Decomposition efficiency of glycitin family in soymilk (Crude diglycosidase; [8]): not detected
- Decomposition efficiency of glycitin family in concentrated soybean protein (Crude diglycosidase; [9]): 31.0%
- Decomposition efficiency of glycitin family in roasted soy flour (Crude diglycosidase; [9]): 20.3%
- Decomposition efficiency of glycitin family in soymilk (Crude diglycosidase; [9]): not detected
- Decomposition efficiency of glycitin family in concentrated soybean protein (Crude diglycosidase; [10]): 27.1%
- Decomposition efficiency of glycitin family in roasted soy flour (Crude diglycosidase; [10]): 9.1%
- Decomposition efficiency of glycitin family in soymilk (Crude diglycosidase; [10]): not detected
- Decomposition efficiency of glycitin family in concentrated soybean protein (Crude diglycosidase; [11]): 35.0%
- Decomposition efficiency of glycitin family in roasted soy flour (Crude diglycosidase; [11]): 36.8%
- Decomposition efficiency of glycitin family in soymilk (Crude diglycosidase; [11]): not detected
- Decomposition efficiency of glycitin family in defatted soybean (Crude diglycosidase; 55° C., heat treatment of enzyme no, reaction time 0 h): not detected
- Decomposition efficiency of glycitin family in defatted soybean (Crude diglycosidase; 55° C., heat treatment of enzyme no, reaction time 1 h): not detected
- Decomposition efficiency of glycitin family in defatted soybean (Crude diglycosidase; 55° C., heat treatment of enzyme no, reaction time 3 h): not detected
- Decomposition efficiency of glycitin family in defatted soybean (Crude diglycosidase; 55° C., heat treatment of enzyme no, reaction time 6 h): not detected
- Decomposition efficiency of glycitin family in defatted soybean (Crude diglycosidase; 55° C., heat treatment of enzyme yes, reaction time 6 h): not detected
- Decomposition efficiency of glycitin family in concentrated soybean protein (Crude diglycosidase; [12]): 36.0%
- Decomposition efficiency of glycitin family in roasted soy flour (Crude diglycosidase; [12]): 39.1%
- Decomposition efficiency of glycitin family in soymilk (Crude diglycosidase; [12]): not detected
- Decomposition efficiency of glycitin family in concentrated soybean protein (Crude diglycosidase; [13]): 33.9%
- Decomposition efficiency of glycitin family in roasted soy flour (Crude diglycosidase; [13]): 30.1%
- Decomposition efficiency of glycitin family in soymilk (Crude diglycosidase; [13]): not detected
- Decomposition efficiency of glycitin family in concentrated soybean protein (Crude diglycosidase; [14]): 29.8%
- Decomposition efficiency of glycitin family in roasted soy flour (Crude diglycosidase; [14]): 12.1%
- Decomposition efficiency of glycitin family in soymilk (Crude diglycosidase; [14]): not detected
- Decomposition efficiency of glycitin family in concentrated soybean protein (Crude diglycosidase; [15]): 26.8%
- Decomposition efficiency of glycitin family in roasted soy flour (Crude diglycosidase; [15]): 6.0%
- Decomposition efficiency of glycitin family in soymilk (Crude diglycosidase; [15]): not detected
- Decomposition efficiency of glycitin family in concentrated soybean protein (Crude diglycosidase; [16]): 35.3%
- Decomposition efficiency of glycitin family in roasted soy flour (Crude diglycosidase; [16]): 37.3%
- Decomposition efficiency of glycitin family in soymilk (Crude diglycosidase; [16]): not detected
- Decomposition efficiency of glycitin family in defatted soybean (Crude diglycosidase; 65° C., heat treatment of enzyme no, reaction time 0 h): not detected
- Decomposition efficiency of glycitin family in defatted soybean (Crude diglycosidase; 65° C., heat treatment of enzyme no, reaction time 1 h): not detected
- Decomposition efficiency of glycitin family in defatted soybean (Crude diglycosidase; 65° C., heat treatment of enzyme no, reaction time 3 h): not detected
- Decomposition efficiency of glycitin family in defatted soybean (Crude diglycosidase; 65° C., heat treatment of enzyme no, reaction time 6 h): not detected
- Decomposition efficiency of glycitin family in defatted soybean (Crude diglycosidase; 65° C., heat treatment of enzyme yes, reaction time 6 h): not detected
- Decomposition efficiency of glycitin family in concentrated soybean protein (Crude diglycosidase; [17]): 36.0%
- Decomposition efficiency of glycitin family in roasted soy flour (Crude diglycosidase; [17]): 38.7%
- Decomposition efficiency of glycitin family in soymilk (Crude diglycosidase; [17]): not detected
- Decomposition efficiency of glycitin family in concentrated soybean protein (Crude diglycosidase; [18]): 35.7%
- Decomposition efficiency of glycitin family in roasted soy flour (Crude diglycosidase; [18]): 34.5%
- Decomposition efficiency of glycitin family in soymilk (Crude diglycosidase; [18]): not detected
- Decomposition efficiency of glycitin family in concentrated soybean protein (Crude diglycosidase; [19]): 35.5%
- Decomposition efficiency of glycitin family in roasted soy flour (Crude diglycosidase; [19]): 31.0%
- Decomposition efficiency of glycitin family in soymilk (Crude diglycosidase; [19]): not detected
- Decomposition efficiency of glycitin family in concentrated soybean protein (Crude diglycosidase; [20]): 35.8%
- Decomposition efficiency of glycitin family in roasted soy flour (Crude diglycosidase; [20]): 29.0%
- Decomposition efficiency of glycitin family in soymilk (Crude diglycosidase; [20]): not detected
- Decomposition efficiency of glycitin family in concentrated soybean protein (Crude diglycosidase; [21]): 35.7%
- Decomposition efficiency of glycitin family in roasted soy flour (Crude diglycosidase; [21]): 39.3%
- Decomposition efficiency of glycitin family in soymilk (Crude diglycosidase; [21]): not detected
- Decomposition efficiency of glycitin family in defatted soybean (Crude diglycosidase; 80° C., heat treatment of enzyme no, reaction time 0 h): not detected
- Decomposition efficiency of glycitin family in defatted soybean (Crude diglycosidase; 80° C., heat treatment of enzyme no, reaction time 1 h): not detected
- Decomposition efficiency of glycitin family in defatted soybean (Crude diglycosidase; 80° C., heat treatment of enzyme no, reaction time 3 h): not detected
- Decomposition efficiency of glycitin family in defatted soybean (Crude diglycosidase; 80° C., heat treatment of enzyme no, reaction time 6 h): not detected
- Decomposition efficiency of glycitin family in defatted soybean (Crude diglycosidase; 80° C., heat treatment of enzyme yes, reaction time 6 h): not detected
- Decomposition efficiency of glycitin family in concentrated soybean protein (Crude diglycosidase; [22]): 35.9%
- Decomposition efficiency of glycitin family in roasted soy flour (Crude diglycosidase; [22]): 38.3%
- Decomposition efficiency of glycitin family in soymilk (Crude diglycosidase; [22]): not detected
- Decomposition efficiency of glycitin family in concentrated soybean protein (Crude diglycosidase; [23]): 36.0%
- Decomposition efficiency of glycitin family in roasted soy flour (Crude diglycosidase; [23]): 40.1%
- Decomposition efficiency of glycitin family in soymilk (Crude diglycosidase; [23]): not detected
- Decomposition efficiency of glycitin family in concentrated soybean protein (Crude diglycosidase; [24]): 35.7%
- Decomposition efficiency of glycitin family in roasted soy flour (Crude diglycosidase; [24]): 38.4%
- Decomposition efficiency of glycitin family in soymilk (Crude diglycosidase; [24]): not detected
- Decomposition efficiency of glycitin family in concentrated soybean protein (Crude diglycosidase; [25]): 35.2%
- Decomposition efficiency of glycitin family in roasted soy flour (Crude diglycosidase; [25]): 35.7%
- Decomposition efficiency of glycitin family in soymilk (Crude diglycosidase; [25]): not detected
- Decomposition efficiency of glycitin family in concentrated soybean protein (Crude diglycosidase; [26]): 34.8%
- Decomposition efficiency of glycitin family in roasted soy flour (Crude diglycosidase; [26]): 39.4%
- Decomposition efficiency of glycitin family in soymilk (Crude diglycosidase; [26]): not detected
